Measurements from paper PMC6162336, “An Afferent Neuropeptide System Transmits Mechanosensory Signals Triggering Sensitization and Arousal in C. elegans” (Neuron, 2018).
Where no end group is shown, it is not given here.

Assays:
[1] = tested on: ASH::ChR2 animals; assay: Cross-modal sensitization assay (reversal response to optogenetic ASH activation); assay type: in vivo, C. elegans
Source text: Channelrhodopsin experiments: 1-2 day old well-fed adult animals were used for all experiments. For LED stimulation: for experiments with flp-20 mutant animals, a custom setup was used as described in ([Ezcurra et al., 2011]); for experiments on frpr-3 mutant animals and RNAi transgenic lines, a custom setup was used as in ([Ardiel et al., 2016], [Ardiel et al., 2017]) using 480 nm Luxeon star LEDs with 450 uw/mm^2 power. In contrast to locomotion arousal experiments described above, these experiments used an automated tapper, which produces equivalent speed responses (Figure S1C). […] ATR (R2500 Sigma-Aldrich) was provided to animals by feeding as described in ([Rabinowitch et al., 2016b]). > 20 animals were placed onto the seeded plate and at least 4 plates were assayed per condition and genotype on multiple days for all cross-modal sensitization behavioral experiments. Video recording was started 5 min after the plate was placed on the stage. For animals exposed to a pre-arousing tap, 1 tap was used, followed by a 20 s interval and then a 2 s blue light stimulation. […]
To test if 2-nonanone exposure could sensitize ASH-dependent reversals, 200 μL undiluted nonanone was spread with a pipette around the rim inside the lid of Petri dish. […] For all experiments, reversal length was analyzed using MATLAB ([Ardiel et al., 2017], [Ezcurra et al., 2011], [Ramot et al., 2008]).

[2] = tested on: ASH neuron; assay: Nonanone sensitization assay, ASH calcium imaging in microfluidics chip; assay type: in vivo, C. elegans; conditions: 5 s nonanone pulse (100%) then 0.5 M glycerol; GCaMP3; n = 9-10
Description: In microfluidics chip: Calcium imaging on 1-2 day old adult animals was performed in custom-designed microfluidic devices as described (using mechanical stimulus module from [Cho et al., 2018], [Cho et al., 2017]). These experiments were performed on a Leica DMIRB inverted microscope using a 40x air objective (N.A. 0.75). Video sequences were captured using a Hamamatsu EM-CCD camera with 100 ms exposure time. Simultaneous dual color imaging was performed using a DV2 beamsplitter (Photometrics) containing a GFP(520 nm)/RFP(605 nm) filter set. Excitation light for fluorescent imaging was delivered through a projector system ([Stirman et al., 2011]). […] Videos were recorded for 40-90 s following stimulus delivery. For analysis of calcium transients, fluorescence intensities for each frame were extracted using a custom MATLAB script ([Cho et al., 2018], [Cho et al., 2017]). […] GCaMP3 and RFP intensities were measured as the mean pixel intensity of the 100 brightest pixels in a circular region of interest (ROI) with a 10 pixel radius. […] All quantification is provided as the ratio of GCaMP3 to tagRFP fluorescence intensity. […]

[3] = tested on: C. elegans wild-type animals; assay: Locomotion assay after odorant stimuli; assay type: in vivo; conditions: benzaldehyde 1% in ethanol, 2-nonanone undiluted, dropped in front of the nose
[4] = biological target: T1, FRPR-3 (Caenorhabditis elegans, UniProt Q66GU0); assay: In vitro GPCR activation assay (aequorin calcium bioluminescence, CHO/mtAEQ/Gα16 cells); assay type: cell-based, C. elegans; conditions: mammalian cells expressing aequorin and promiscuous Gα16
T1 sequence (Q66GU0 1-360): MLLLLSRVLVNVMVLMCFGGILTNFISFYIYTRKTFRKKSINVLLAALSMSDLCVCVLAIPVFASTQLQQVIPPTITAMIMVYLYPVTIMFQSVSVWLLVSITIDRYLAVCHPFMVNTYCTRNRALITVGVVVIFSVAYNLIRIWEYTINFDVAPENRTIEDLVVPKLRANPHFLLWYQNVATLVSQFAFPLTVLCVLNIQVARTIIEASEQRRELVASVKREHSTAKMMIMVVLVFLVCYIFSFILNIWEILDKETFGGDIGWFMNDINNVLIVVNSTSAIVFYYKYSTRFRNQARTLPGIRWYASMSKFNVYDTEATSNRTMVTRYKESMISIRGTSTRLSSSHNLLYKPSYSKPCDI
Description: Cell-based activation assays were performed as described ([Beets et al., 2012]). FRPR-3/C26F1.6 cDNA was cloned into the pcDNA3.1(+) TOPO expression vector (Thermo Fisher Scientific). Receptor activation was studied in Chinese hamster ovary cells (CHO) stably expressing apo-aequorin (mtAEQ) targeted to the mitochondria as well as the human Gα16 subunit. The CHO-K1 cell line (PerkinElmer, ES-000-A2) was used for receptor activation assays. CHO/mtAEQ/Gα16 cells were transiently transfected with the FRPR-3 cDNA construct or the empty pcDNA3.1(+) vector using the Lipofectamine transfection reagent (Thermo Fisher Scientific). Cells expressing the receptor were shifted to 28°C 1 day later, and collected 2 days post-transfection in BSA medium (DMEM/HAM’s F12 with 15 mM HEPES, without phenol red, 0.1% BSA) loaded with 5 μM coelenterazine h (Thermo Fisher Scientific) for 4 h to reconstitute the holo-enzyme aequorin. Cells (25,000 cells/well) were exposed to synthetic peptides in BSA medium, and aequorin bioluminescence was recorded for 30 s on a MicroBeta LumiJet luminometer (PerkinElmer, Waltham Massachusetts) in quadruplicate. For dose-response evaluations, after 30 s of ligand-stimulated calcium measurements, Triton X-100 (0.1%) was added to the well to obtain a measure of the maximum cell Ca^2+ response. BSA medium without peptides was used as a negative control and 1 μM ATP was used to check the functional response of the cells. Cells transfected with the empty vector were used as a negative control (not shown). EC50 values were calculated from dose-response curves, constructed using a nonlinear regression analysis, with sigmoidal dose-response equation (Prism 6.0).

O=Cc1ccccc1 [benzaldehyde]
Effect of odorant presence on tap-evoked enhancement of ASH responses ([1]; 1% benzaldehyde in ethanol on lid, tap, 20 s wait, blue light 2 s, n>15): did not prevent enhancement of ASH responses by tap

CCCCCCCC(C)=O [nonanone, 2-nonanone]
Enhancement of behavioral (reversal) response to optogenetic ASH activation by prior odorant exposure ([1]; 200 μL undiluted nonanone on lid, blue light 40 s later, n > 7): nor did it enhance behavioral responses to optogenetic activation of ASH
Enhancement of ASH calcium responses to glycerol by prior odorant exposure [2]: did not significantly enhance ASH responses to glycerol
Increase in locomotion speed after stimulus [3]: can evoke locomotor arousal

AMMRF-NH2 [AMMRFa]
EC50 values for activation of FRPR-3 (in words) [4]: low nanomolar range

AVFRM-NH2 [AVFRMa]
EC50 values for activation of FRPR-3 (in words) [4]: low nanomolar range

SVFRL-NH2 [SVFRLa]
EC50 values for activation of FRPR-3 (in words) [4]: low nanomolar range
